Laboratory results taken from paper PMC8699021, “Which Properties Allow Ligands to Open and Bind to the Transient Binding Pocket of Human Aldose Reductase?” (Biomolecules, 2021).

Key:
[1] = biological target: T1, ALR-2 (human aldose reductase, EC 1.1.1.21) (Homo sapiens, UniProt P15121); assay: ITC direct titration; X-ray; assay type: binding
T1 construct: gene AKR1B1; one molecule per asymmetric unit
Source text: ITC direct titration; X-ray on ALR-2 (human aldose reductase, EC 1.1.1.21)

[2] = biological target: T1, ALR-2 (human aldose reductase, EC 1.1.1.21); assay: ITC direct titration; assay type: binding
Source text: ITC direct titration on ALR-2 (human aldose reductase, EC 1.1.1.21)

C[S+]([O-])c1cccc(CNC(=O)c2ccc(F)cc2OCC(=O)O)c1 (stereo not drawn) [compound 3, 2-(5-fluoro-2-((3-(methylsulfinyl)benzyl)carbamoyl)phenoxy)acetic acid]
Kd [1]: 5000 ± 600 nM

O=C(O)COc1cc(F)ccc1C(=O)NCc1cccc(B(O)O)c1 [compound 4, 2-(2-((3-boronobenzyl)carbamoyl)-5-fluorophenoxy) acetic acid]
Kd [1]: 2300 ± 300 nM

O=C(O)COc1cc(F)ccc1C(=O)NCc1nc2ccccc2s1 [compound 9, inhibitor 9]
Kd [2]: 420 ± 80 nM
